In PMC9693575, “Isopropyl Amino Acid Esters Ionic Liquids as Vehicles for Non-Steroidal Anti-Inflammatory Drugs in Potential Topical Drug Delivery Systems with Antimicrobial Activity” (International Journal of Molecular Sciences, 2022):
Read-outs that look alike come from different tables or passages of the source.

Tests used:
Micrococcus Luteus = experiment: Disc diffusion antimicrobial susceptibility test, Micrococcus luteus; type: cell-based; design: key to Inhibition diameter: -: no growth of the organism
Escherichia coli = experiment: Disc diffusion antimicrobial susceptibility test, Escherichia coli; type: cell-based; design: key to Inhibition diameter: -: no growth of the organism
Method: (§1) The plates were incubated for 24 h at 37 °C.

physchem = experiment: physchem
Source text: This study aims to compare the influence of amino acid structure on the physicochemical properties of NSAID salts with the isopropyl ester of amino acids.

[1] = DTG; cited from earlier work
[2] = pKa / pKB by potentiometric acid-base titration and formation constant log(KS); conditions: calculated from pKA of acid and pKB of base
Method: Determination of formation constant pKs
Zabrze, Poland). For the measurement of pKA acids, 0.1 M NaOH was used. In order to
ester hydrochloride, HCl aqueous solution, was added in an amount that allowed reach-
After that, an acid-base titration was made out by adding dropwise 5 mM

[3] = system: Staphylococcus epidermidis; experiment: Disc diffusion antimicrobial susceptibility test, Staphylococcus epidermidis; type: cell-based; design: key to Inhibition diameter: -: no growth of the organism
Method: as §1

[4] = Thermogravimetric analysis (thermal stability); conditions: for TDTGmax, maximum decomposition temperature: DTG, air atmosphere, 10 °C min−1
Method: The thermal stabilities of the obtained NSAIDs isopropyl ester amino acid salts were investigated. […] The beginning of thermal degradation was evaluated based on the value of onset of the TG curve, which occurs in the first phase of the process. […]
Thermogravimetric analysis (TG)
Thermogravimetric analysis was carried out using Netzsch Proteus Thermal Analy- […]
Samples of 5–8 mg were loaded in Al2O3 […]
ment was performed in an air atmosphere (25 cm3min−1) with nitrogen flow (10 cm3min−1) […]
Differential scanning calorimetry (DSC)
Phase transformation temperatures were determined on a PerkinElmer DSC-7 (Rot-gau, Germany). The samples of 3–5 mg were loaded on the aluminum pan with a crimped lid. Measurements were carried out in a nitrogen atmosphere (20 cm3 min-1). The rate of heating/cooling was 5°C min-1. […]
tained for 30 min inside the furnace, then cooled to 0°C to condition the sample and the crucible. After that, heating was conducted to the specified temperature, followed by cool-ing. Unless otherwise stated, two complete cycles of heating and cooling were performed.
The specified maximum temperature was individual for each compound, determined from TG analysis, and it was at least 10°C lower than the onset decomposition tempera-ture. Temperatures reported from DSC data are curve peaks, the melting points being endothermic upon heating and crystallization point being exothermic upon cooling. Lead, indium, tin, and zinc were used as standards to calibrate the temperature. Indium was used for enthalpy measurement calibration. […]

[5] = solution transferred to disc 25 mg cm^−3
[6] = solution transferred to disc 50 mg cm^−3
[7] = solution transferred to disc 100 mg cm^−3
[8] = solution transferred to disc 200 mg cm^−3
[9] = solution transferred to disc 400 mg cm^−3
[10] = solution transferred to disc 600 mg cm^−3
[11] = solution transferred to disc 800 mg cm^−3
[12] = solution transferred to disc 1000 mg cm^−3

Compound | Inhibition diameter (Micrococcus Luteus; [5]) | Inhibition diameter (Micrococcus Luteus; [6]) [mm] | Inhibition diameter (Micrococcus Luteus; [7]) [mm] | Inhibition diameter (Micrococcus Luteus; [8]) [mm] | Inhibition diameter (Micrococcus Luteus; [9]) [mm] | Inhibition diameter (Micrococcus Luteus; [10]) [mm] | Inhibition diameter (Micrococcus Luteus; [11]) [mm] | Inhibition diameter (Micrococcus Luteus; [12]) [mm] | Inhibition diameter (Escherichia coli; [5]) | Inhibition diameter (Escherichia coli; [6]) | Inhibition diameter (Escherichia coli; [7]) | Inhibition diameter (Escherichia coli; [8]) | Inhibition diameter (Escherichia coli; [9]) | Inhibition diameter (Escherichia coli; [10]) | Inhibition diameter (Escherichia coli; [12]) | Inhibition diameter [3, 5] | Inhibition diameter [3, 6] | Inhibition diameter [3, 7] | Inhibition diameter [3, 8] | Inhibition diameter [3, 9] | further results
CC(C)Cc1ccc(C(C)C(=O)O)cc1.CCC(C)C(N)C(=O)OC(C)C (mixture of isomers) [[L-IleOiPr][IBU]] | 7.2 ± 0.2 mm | 7.6 ± 0.1 | 8.6 ± 0.1 | 9.4 ± 0.2 | 10.7 ± 0.1 | 11.2 ± 0.1 | 11.6 ± 0.1 | 12.3 ± 0.2 | - | - | - | 6.3 ± 0.1 mm | 6.4 ± 0.3 mm | 7.1 ± 0.2 mm | 7.8 ± 0.3 mm | 7.5 ± 0.2 mm | 9.5 ± 0.4 mm | 14.4 ± 0.2 mm | 15.4 ± 0.4 mm | 17.0 ± 0.2 mm | Solubility in Phosphate Buffer pH = 5.4 (physchem): 1.161 ± 0.002 g dm^−3; Solubility in Phosphate Buffer pH = 5.4, as active substance (physchem): 0.631 ± 0.002 gAS dm^−3; Solubility in Phosphate Buffer pH = 7.4 (physchem): 4.038 ± 0.021 g dm^−3; Solubility in Phosphate Buffer pH = 7.4, as active substance (physchem): 2.195 ± 0.021 gAS dm^−3; TDTGmax, maximum decomposition temperature [1]: 221.9 [50] °C; Log(KS) formation constant [2]: 5.78; Inhibition diameter [3, 10]: 17.5 ± 0.1 mm; Inhibition diameter [3, 11]: 18.0 ± 0.1 mm; Inhibition diameter [3, 12]: 19.3 ± 0.1 mm
CC(C)Cc1ccc(C(C)C(=O)O)cc1.CSCCC(N)C(=O)OC(C)C (mixture of isomers) [[L-MetOiPr][IBU]] | - | 7.3 ± 0.2 | 8.5 ± 0.2 | 10.4 ± 0.1 | 12.6 ± 0.1 | 14.1 ± 0.1 | 14.3 ± 0.1 | 14.6 ± 0.3 | - | 6.1 ± 0.1 mm | 6.2 ± 0.1 mm | 6.5 ± 0.2 mm | 7.1 ± 0.3 mm | 7.6 ± 0.2 mm | 8.1 ± 0.1 mm | - | - | 8.3 ± 0.1 mm | 13.6 ± 0.2 mm | 14.7 ± 0.2 mm | Solubility in Phosphate Buffer pH = 5.4 (physchem): 0.932 ± 0.011 g dm^−3; Solubility in Phosphate Buffer pH = 5.4, as active substance (physchem): 0.483 ± 0.011 gAS dm^−3; Solubility in Phosphate Buffer pH = 7.4 (physchem): 3.376 ± 0.001 g dm^−3; Solubility in Phosphate Buffer pH = 7.4, as active substance (physchem): 1.752 ± 0.001 gAS dm^−3; TDTGmax, maximum decomposition temperature [1]: 209.9 [50] °C; Log(KS) formation constant [2]: 5.53; Inhibition diameter [3, 10]: 15.4 ± 0.2 mm; Inhibition diameter [3, 11]: 17.0 ± 0.2 mm; Inhibition diameter [3, 12]: 17.7 ± 0.3 mm
CC[C@H](C)[C@H](N)C(=O)OC(C)C.COc1ccc2cc([C@H](C)C(=O)O)ccc2c1 [[L-IleOiPr][NAP], L-isoleucine isopropyl ester naproxenate] | 6.4 ± 0.1 mm | 6.7 ± 0.1 | 7.0 ± 0.1 | 7.3 ± 0.1 | 7.5 ± 0.2 | 8.1 ± 0.6 | 8.7 ± 0.1 | 9.5 ± 0.1 | - | - | - | - | - | - | - | - | - | - | - | - | TTGonset, the onset of the thermal degradation [4]: 127.0 °C; TDTGmax, maximum decomposition temperature [4]: 287.4 °C; Log(KS) formation constant [2]: 6.11; Inhibition diameter [3, 10]: 12.0 ± 0.3 mm; Inhibition diameter [3, 11]: 12.4 ± 0.2 mm; Inhibition diameter [3, 12]: 13.5 ± 0.3 mm
CC(C)Cc1ccc(C(C)C(=O)O)cc1.CC(C)OC(=O)[C@@H](N)[C@@H](C)O [[L-ThrOiPr][IBU], L-threonine isopropyl ester ibuprofenate] | 7.3 ± 0.2 mm | 10.4 ± 0.2 | 15.5 ± 0.2 | 16.3 ± 0.1 | 17.0 ± 0.2 | 17.5 ± 0.1 | 18.2 ± 0.2 | 19.3 ± 0.2 | - | - | - | - | - | - | - | 7.5 ± 0.2 mm | 10.5 ± 0.2 mm | 15.4 ± 0.1 mm | 16.9 ± 0.2 mm | 17.5 ± 0.2 mm | TDTGmax, maximum decomposition temperature [1]: 209.9 [50] °C; Log(KS) formation constant [2]: 6.47; Inhibition diameter [3, 10]: 18.3 ± 0.2 mm; Inhibition diameter [3, 11]: 19.8 ± 1.4 mm; Inhibition diameter [3, 12]: 23.2 ± 0.1 mm
CC(C)OC(=O)[C@@H](N)[C@@H](C)O.COc1ccc2cc([C@H](C)C(=O)O)ccc2c1 [[L-ThrOiPr][NAP], L-threonine isopropyl ester naproxenate] | 6.2 ± 0.1 mm | 6.6 ± 0.1 | 6.9 ± 0.1 | 7.6 ± 0.1 | 8.5 ± 0.1 | 8.8 ± 0.2 | 9.6 ± 0.1 | 10.8 ± 0.5 | - | - | - | - | - | - | - | - | - | - | - | - | TTGonset, the onset of the thermal degradation [4]: 145.8 °C; TDTGmax, maximum decomposition temperature [4]: 295.3 °C; inhibition zone (in words) ([3]; S. epidermidis, tested concentrations): no inhibition zone was observed; Inhibition diameter [3, 10]: -; Inhibition diameter [3, 11]: -; Inhibition diameter [3, 12]: -
CC(C)OC(=O)[C@@H](N)C(C)C.COc1ccc2cc([C@H](C)C(=O)O)ccc2c1 [[L-ValOiPr][NAP]] | 6.2 ± 0.1 mm | 6.3 ± 0.1 | 6.4 ± 0.1 | 7.2 ± 0.1 | 7.3 ± 0.1 | 7.4 ± 0.2 | 8.2 ± 0.2 | 8.6 ± 0.2 | - | - | - | - | - | - | - | - | - | - | - | - | TDTGmax, maximum decomposition temperature [1]: 275.8 [48] °C; Log(KS) formation constant [2]: 5.89; Inhibition diameter [3, 10]: -; Inhibition diameter [3, 11]: 6.6 ± 0.3 mm; Inhibition diameter [3, 12]: 7.4 ± 0.1 mm
